A short description of this data set: gradient 5% acetonitrile 3 min, to 50% in 2 min, to 85% in 15 min, held 3 min, 100 µL/min. The following applies: column: Zorbax Extend-C18 2.1 x 50 mm; eluents: water / acetonitrile, 0.1% formic acid. An outline of the steps:
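The system's dead and dwell volumes were 40 μL and 900 μL, with a Zorbax Extend-C18 column (2.1 × 50 mm, 1.8 μm) run at 100 μL/min in water and acetonitrile containing 0.1% formic acid each. Pure standards were analyzed in mixtures of ~100 molecules by HPLC–quadrupole time-of-flight mass spectrometry in positive and negative ionization mode. Retention time was assigned from computationally picked, manually inspected adduct peaks.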
Consider `Cc1c(C#N)c2ccccc2n1CC(=O)NC(C)c1ccc2c(c1)OCCCO2` (stereo unspecified), for which the RP-LC retention time turned out to be 892 s. The figure for `CCCNC(=O)N1CCCCCCN(C)C(=O)CC1` is 662 s. As for `CCCCNC(=O)C(C)n1nc(C)c2nn(-c3ccccc3)c(C)c2c1=O` (stereo unspecified), the figure is 864 s. As for `CCOC(=O)c1c(C)[nH]c(CCC(=O)Nc2cc(F)ccc2F)c1C`, the figure is 933 s; as for `CN(C)CCC(c1ccccc1)c1ccccn1` (stereo unspecified), 580 s. Take `Cc1ccc(=O)n(CC(=O)N2CCOCC2)n1`: the RP-LC retention time turned out to be 514 s. As for `Cc1ccccc1NC(=O)C1CCN(S(C)(=O)=O)c2ccccc2O1` (stereo unspecified), the figure is 867 s. The figure for `CCOc1ccccc1-c1noc(Cn2cnc3c(oc4ccccc43)c2=O)n1` is 914 s; for `Cc1ncc2c(n1)C[C@@H]1CC[C@H]2N1C(=O)Nc1ccccc1` it is 636 s; for `N#Cc1cnc2ccc(F)cc2c1N1CCC(C(=O)Nc2ccc(F)cc2)CC1` it is 885 s. The figure for `O=C(NCCN1CCN(C(=O)c2cccs2)CC1)c1ccc2nsnc2c1` is 550 s. Consider `O=C(c1cc(Cl)ccc1Cl)N1CCN(c2cc(-c3cccs3)[nH]n2)CC1`, for which the RP-LC retention time was determined as 870 s.

Take `CC(=O)c1ccc(NC(=O)Cn2c(=O)n(-c3ccc(F)cc3)c(=O)c3c2cc(C)n3C)cc1`: the RP-LC retention time was determined as 763 s. As for `CCc1ccc(-n2nc(CO)c(C(=O)NC3CC3)n2)cc1`, the figure is 897 s; as for `CCn1cnc(S(=O)(=O)N2CCC(C(=O)Nc3ccc4c(c3)OCCO4)CC2)c1`, 681 s; as for `CCc1ccc(-c2noc(CN3C(=O)COc4ccc(C)cc43)n2)cc1`, 1160 s. As for `Cn1cccc1C(=O)N1CC[C@@H]2CN(S(C)(=O)=O)[C@@H]2C1`, the figure is 624 s; as for `Cc1ccc(CNC(=O)C2CCN(c3cnc(N4CCCC4)nc3)CC2)cc1C`, 716 s; as for `CCSc1nnc(NC(=O)Cn2nc(-c3ccncc3)ccc2=O)s1`, 561 s. The figure for `O=C(NCCc1ccccc1)C1CC(=O)N(CCc2c[nH]c3ccc(F)cc23)C1` (stereo unspecified) is 867 s.

With `COC(=O)c1c(-c2cccc(F)c2)noc1NCc1ccc(OC)cc1OC`, the RP-LC retention time came out at 548 s.

On to `N#Cc1ccc(-c2cnc3[nH]cc(NC(=O)c4cccnc4)c3c2)cc1`, for which the RP-LC retention time was 738 s. For the compound `O=C(NCc1ccco1)C1CCN(c2cnn(Cc3ccccc3)c(=O)c2)CC1`, the RP-LC retention time is 723 s. The figure for `CCOC(=O)CCCSc1nc2sc3c(c2c(=O)[nH]1)CCC3` is 870 s; for `COc1ccc(NC(=O)Cn2c(=O)c3cc(-c4ccco4)nn3c3ncccc32)cc1Cl` it is 822 s. The figure for `CCOc1ccc(CCNc2nc(-c3ccc(OC)c(OC)c3)no2)cc1` is 967 s; for `O=C(NCCC1=CCCCC1)c1ccc2ncnc(N3CCCC3)c2c1` it is 688 s; for `COc1ccccc1C1(CNC(=O)c2ccco2)CCOCC1` it is 709 s.

Regarding `Cc1ccc(Nc2nc(-c3ccccc3)cs2)cc1`, the RP-LC retention time was found to be 1170 s. The figure for `Nc1nc(-c2ccc(Cl)cc2)nn1C(=O)c1ccc(Cl)cc1` is 1170 s. The figure for `CCCNC(=O)CN1C(=O)C2CCCCN2c2ccc(S(=O)(=O)N3CCCC3)cc21` (stereo unspecified) is 800 s.

The compound `Cc1ccc(F)cc1NS(=O)(=O)c1cc2c(s1)CCN(C(=O)C1CC1)C2` displayed an RP-LC retention time of 839 s. In turn, `CCN(CC)C(=O)c1ccc2c(c1)nnn2CCNC(=O)NC(C)(C)C` came in with an RP-LC retention time of 658 s.

Compound `N#Cc1cccc(NC(=O)Cn2cccc2-c2nc(-c3ccc4c(c3)OCO4)no2)c1` registered an RP-LC retention time of 924 s. The figure for `CCCN1CCN(C(=O)C2CCN(c3nc4ccc(-c5ccccc5)nc4s3)CC2)CC1` is 693 s; for `Cc1nn(-c2ccccc2)c2c1N(CC(=O)NC1CCCC1)C(=O)CS2` it is 780 s.

As to `COCCc1nnc(NC(=O)C2c3ccccc3Oc3ccccc32)o1`, the RP-LC retention time worked out at 718 s. As for `CCCNC(=O)C1CCCN(c2nc3ncn(CC(=O)Nc4c(C)cccc4CC)c(=O)c3s2)C1` (stereo unspecified), the RP-LC retention time turned out to be 727 s. As for `CN1C(=O)C(C)(C(=O)Nc2ccc(Cl)cc2F)Oc2cccnc21` (stereo unspecified), the figure is 894 s; as for `COc1ccc(CC(=O)N2C[C@@H]3C[C@H]2C[C@@H]3NC(=O)c2cccs2)cc1Cl`, 764 s. The figure for `CC(NC(=O)c1ccco1)c1nc2ccccc2n1CC(=O)N(c1ccccc1)C(C)C` (stereo unspecified) is 725 s; for `Cc1cc(C)c2c(-n3cccc3)nn(CC(=O)NCCN(C)C)c2n1` it is 630 s.

For the compound `Cc1cc(NS(=O)(=O)c2cc(-c3[nH]ncc3C(=O)N(C)C)oc2C)ccc1F`, the RP-LC retention time came out at 699 s. The figure for `Cc1csc(-c2cc(S(=O)(=O)N3CCCCCC3)c(C)n2C)n1` is 1100 s. The figure for `Nc1cc(C2CCN(C(=O)c3ccc(F)c(Cl)c3)CC2)no1` is 712 s. The figure for `O=C(NCc1ccc(N2CCOCC2)nc1)c1cc(F)cc(F)c1` is 606 s; for `COc1ccc(CC(=O)N2CCC3(CC2)NC(=O)c2cc(F)ccc2N3C)cc1` it is 768 s; for `COCC(=O)NC1CCC12CCN(C(=O)CC1CCCCC1)CC2` (stereo unspecified) it is 778 s.

Take `CCc1ccc(CNC(=O)C2CCc3nc(N(CC)CC)ncc3C2)cc1` (stereo unspecified): the RP-LC retention time was determined as 786 s. `O=C(c1ccc(Cl)cc1)N1CCN(c2cnn3c(C4CC4)nnc3c2)CC1`: the RP-LC retention time was determined as 683 s. Take `Cc1ccc(CNC(=O)Cc2c(C(=O)O)c(C)cn2C)o1`: the RP-LC retention time came to 695 s.

The compound `CC(=O)N1CCc2ccccc2C1C(=O)NCc1ccc(F)cc1` (stereo unspecified) showed an RP-LC retention time of 762 s. The figure for `O=C(CN1CCCC(COCc2ccccc2)C1)Nc1nccs1` (stereo unspecified) is 570 s. As for `CC(C)Cn1ccc2c(cc(C(=O)Nc3ccc(Br)cc3)n2C)c1=O`, the figure is 979 s. The figure for `CCOc1ccc(-c2ccc(N3CCN(C(=O)Cc4noc5ccccc45)CC3)nn2)cc1` is 672 s. The compound `Cc1nc(C(=O)Nc2ccc(F)c(Cl)c2)c(C)o1` returned an RP-LC retention time of 958 s. The compound `CC(C)Cn1nc2c(S(=O)(=O)N3CCOCC3)cccn2c1=O` yielded an RP-LC retention time of 707 s. As for `Cc1nn(C(C)C(=O)NCCc2ccco2)c(=O)c2nn(-c3ccccc3)c(C)c12` (stereo unspecified), the figure is 788 s. As for `CCC(=O)N(C1CCOCC1)C1CCN(Cc2cccc(Br)c2)CC1`, the figure is 635 s; as for `Cc1ccc(NC(=O)N2CCN(c3nc(N)nc4sc(-c5cccnc5)nc34)CC2)cc1`, 799 s. The figure for `Cc1cc2nc(C(=O)N3CCN(c4ccccn4)CC3)c(=O)n(C)c2cc1C` is 597 s. As to `Cc1ccc(S(=O)(=O)N2CCc3nc(-c4ccc(F)cc4)ncc3C2)cc1Cl`, the RP-LC retention time is 1230 s. In the case of `Cc1ccc2[nH]cc(CCN3CC(C(=O)N4CCN(c5ccccc5)CC4)CC3=O)c2c1` (stereo unspecified), the RP-LC retention time turned out to be 839 s. As for `CCn1cnc(S(=O)(=O)N2CCC(C(=O)Nc3ccc(OC)c(Cl)c3)CC2)c1`, the figure is 724 s; as for `CCC(C)C(NC(=O)Cc1cccc(F)c1)C(=O)Nc1nc2ccccc2[nH]1` (stereo unspecified), 736 s. As for `Cc1ccc(S(=O)(=O)N2CC(=O)N(C3CCCC3)C3(CCCCC3)C2)c(C)c1`, the figure is 1270 s; as for `Cc1cccc(Cn2ccc3ccn(CC(=O)N4CCOc5ccc(C)cc54)c(=O)c32)c1`, 1090 s; as for `Cc1ccc(NC(=O)Cn2nc3c(N4CCN(c5ccccc5)CC4)nccn3c2=O)cc1C`, 975 s. The figure for `CNC(=O)C1CCN(c2nc3ncn(CC(=O)NC(C)C)c(=O)c3s2)CC1` is 570 s; for `CC(=O)c1sc(NC(=O)c2cc(Cl)sc2Cl)nc1-c1ccccc1` it is 1080 s; for `Cc1ccccc1CN1CCC(CNS(=O)(=O)c2ccc3c(c2)CCCC(=O)N3)CC1` it is 616 s. Compound `CCOc1ccc(CNC(=O)C2CCCN(c3cc(=O)n(C)c(=O)n3CC)C2)cc1OCC` (stereo unspecified) displayed an RP-LC retention time of 791 s. The figure for `N#Cc1cccc(-c2nc(-c3cccc(-c4ccn[nH]4)c3)no2)c1` is 920 s; for `Cc1ccc(NC(=O)c2nnc(CCCC(=O)NCCc3c[nH]c4ccc(C)cc34)s2)cc1` it is 946 s. The figure for `COc1ccc(C(C)NC(=O)c2cn3nc(Cl)ccc3n2)cc1OC` (stereo unspecified) is 755 s; for `COc1ccc(CCC(=O)N2CCC3(CC2)C(=O)N(C)c2ccccc23)cc1` it is 867 s; for `CC(=O)N1CCc2cc(C(=O)NCc3ccccc3)ccc21` it is 736 s. As for `Cc1cc(C)cc(OCCNS(=O)(=O)c2ccc3c(c2)OCCO3)c1`, the figure is 934 s; as for `COc1ccc(NC(=O)C2CN(S(=O)(=O)c3cccnc3)CC23CCCCC3)cc1F` (stereo unspecified), 900 s; as for `COc1ccc2[nH]c(=O)c(CCC(=O)NCCN3CCCCCC3)cc2c1`, 600 s. Take `Cc1cc(C)cc(Nc2nc(C)cc3nn(CC(=O)NCc4ccccc4)c(=O)n23)c1`: the RP-LC retention time was determined as 1080 s.

(Values after the METLIN SMRT retention time set (Domingo-Almenara et al. 2019).)
